Source: PubChem BioAssay (NCI)
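Values below derive from 48-hour exposures of cells grown in 96-well plates, with endpoints linearly interpolated between the two concentrations bracketing the appropriate inhibition level. TGI: concentration producing complete growth inhibition.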

tested on: ACHN renal; experiment: NCI anticancer screen, dose series, 48 h

SMILES	TGI [µM]
Cc1[nH]c(=O)nc2sc(=NC3CCCCC3)n(C3CCCCC3)c(=O)c12	> 100
C[C@]12c3c4cc(NC(=O)C(=O)NCc5ccc(-c6ccccn6)nc5)cc3Oc3cc(NC(=O)C(=O)NCc5ccc(-c6ccccn6)nc5)cc(c31)OC1C=C(NC(=O)C(=O)NCc3ccc(-c5ccccn5)nc3)C=C(O4)C12 (stereo not given in full)	59.2
C/C(=N\NC(N)=S)c1ccc2c(c1)Sc1ccccc1O2	43.7
O=c1[nH]c(=O)c2c3n(cc2[nH]1)CCCCC3	> 100
COc1ccc(C(C)NNC(=O)c2ccncc2)cc1OC (stereo not given)	> 100
C[C@]12[C@@H]3CC[C@H]1[C@@H](O)C(=O)N2CC3	> 100
O=C(C(=O)n1ccc2ccccc21)n1ccc2ccccc21	> 100
COc1ccc(NC(=S)c2ccc(CN3CCCCC3)s2)cc1	> 100
Cc1ccc(S[C@@H](C)[C@@](O)(CF)CN(Cc2ccccc2)C(=O)C(F)(F)F)cc1	60.3
CCN(CC)CCCNC(=O)c1cc(-c2nccn2C)nc2ccccc12	> 100
COc1ccc2oc3c(C)cc4c(OC)nnc(OC)c4c3c2c1	> 100
CC(C)=C[C@H]1C[C@H](C)[C@H]2CC[C@H](C)c3c2c1c(C)c1ncoc31	32.7
COc1cccc(-c2cc(=O)c3cc(N4CCCCC4)ccc3[nH]2)c1	> 96.6

tested on: NCI-H522 lung; experiment: NCI anticancer screen, dose series, 48 h

SMILES	TGI [µM]
COC(=O)CC(C)(NS(=O)c1ccc(C)cc1)c1ccccc1 (stereo not given)	> 100
CCCCCCc1cc2cc(-c3cn4ccsc4n3)c(=O)oc2cc1O	> 100
O=C(O)C1C2c3ccccc3C(c3ccccc32)C1C(=O)NCC1CC1 (stereo not given)	86.9
COC(=O)[C@]1(C)CCC[C@@]2(C)C1CC[C@@]13C=C(C(C)C)[C@@H](CC1=O)CC23 (stereo not given in full)	38.5
O=c1c(F)cn(Cc2c(Cl)cccc2Cl)c(=O)n1Cc1c(Cl)cccc1Cl	> 31.6
Cc1ccc2nc(-c3ccccc3)cc(=O)n2c1	> 100
C=CCNC(=S)N/C=C(\C#N)C(N)=O	> 100
C=C1C(=O)O[C@@H]2/C=C(C)/C=C\[C@@H]3O[C@@]3(C)C[C@@H](O)C12 (stereo not given in full)	19.6
O=c1[nH]c(=O)n(C2COC(CO)C2O)cc1F (stereo not given)	> 100
O=[N+]([O-])c1ccc2nc(Nc3ccccc3)c(Nc3ccccc3)nc2c1	1.33
COc1ccc(C2=CC(C(C)=C(C(N)=O)C(N)=O)C=C(c3ccc(Br)cc3)C2)c(OC)c1 (stereo not given)	> 100
CC(C)(CN1CCCCC1)C(/C=C/c1ccc(Cl)cc1)=N\NC(=O)N/N=C(/C=C/c1ccc(Cl)cc1)C(C)(C)CN1CCCCC1	8.05
CSC(=O)c1sc(SC)[n+](-c2ccccc2)c1O	24.8
Cc1cc(OC(=O)Nc2cccc3ccccc23)c(C(C)C)cc1C(=S)Nc1ccccc1	29.1
Cc1[nH]c(=O)nc2sc(=NC3CCCCC3)n(C3CCCCC3)c(=O)c12	> 100
C[C@]12c3c4cc(NC(=O)C(=O)NCc5ccc(-c6ccccn6)nc5)cc3Oc3cc(NC(=O)C(=O)NCc5ccc(-c6ccccn6)nc5)cc(c31)OC1C=C(NC(=O)C(=O)NCc3ccc(-c5ccccn5)nc3)C=C(O4)C12 (stereo not given in full)	> 100
O=c1[nH]c(=O)c2c3n(cc2[nH]1)CCCCC3	> 100
C[C@]12[C@@H]3CC[C@H]1[C@@H](O)C(=O)N2CC3	> 100
O=C(C(=O)n1ccc2ccccc21)n1ccc2ccccc21	> 100
COc1ccc(NC(=S)c2ccc(CN3CCCCC3)s2)cc1	32.5
Cc1ccc(S[C@@H](C)[C@@](O)(CF)CN(Cc2ccccc2)C(=O)C(F)(F)F)cc1	> 100
CCN(CC)CCCNC(=O)c1cc(-c2nccn2C)nc2ccccc12	> 100
COc1ccc2oc3c(C)cc4c(OC)nnc(OC)c4c3c2c1	> 100
COc1ccc(S(=O)(=O)n2c3c(c4ccccc42)[C@@H]2[C@@H](CCCN2C(=O)CS(=O)c2ccc(C)cc2)[C@H](Cl)C3)cc1 (stereo not given in full)	> 100
CCOC(=O)CCCSCCCC(=O)CCCSCCCC(=O)OCC	> 100
CC(C)=C[C@H]1C[C@H](C)[C@H]2CC[C@H](C)c3c2c1c(C)c1ncoc31	31.5
COc1cccc(-c2cc(=O)c3cc(N4CCCCC4)ccc3[nH]2)c1	> 21

tested on: SNB-19 CNS; experiment: NCI anticancer screen, dose series, 48 h

SMILES	TGI [µM]
COC(=O)CC(C)(NS(=O)c1ccc(C)cc1)c1ccccc1 (stereo not given)	> 100
CCCCCCc1cc2cc(-c3cn4ccsc4n3)c(=O)oc2cc1O	> 100
O=C(O)C1C2c3ccccc3C(c3ccccc32)C1C(=O)NCC1CC1 (stereo not given)	> 100
COC(=O)[C@]1(C)CCC[C@@]2(C)C1CC[C@@]13C=C(C(C)C)[C@@H](CC1=O)CC23 (stereo not given in full)	73.4
O=c1c(F)cn(Cc2c(Cl)cccc2Cl)c(=O)n1Cc1c(Cl)cccc1Cl	> 100
Cc1ccc2nc(-c3ccccc3)cc(=O)n2c1	> 100
C=CCNC(=S)N/C=C(\C#N)C(N)=O	> 100
C=C1C(=O)O[C@@H]2/C=C(C)/C=C\[C@@H]3O[C@@]3(C)C[C@@H](O)C12 (stereo not given in full)	42.5
O=c1[nH]c(=O)n(C2COC(CO)C2O)cc1F (stereo not given)	> 100
O=[N+]([O-])c1ccc2nc(Nc3ccccc3)c(Nc3ccccc3)nc2c1	7.7
COc1ccc(C2=CC(C(C)=C(C(N)=O)C(N)=O)C=C(c3ccc(Br)cc3)C2)c(OC)c1 (stereo not given)	> 100
CC(C)(CN1CCCCC1)C(/C=C/c1ccc(Cl)cc1)=N\NC(=O)N/N=C(/C=C/c1ccc(Cl)cc1)C(C)(C)CN1CCCCC1	16.3
CC(C)C(NC(=O)Oc1ccccc1)C(=O)NC1c2c(Br)sc(Br)c2C(=O)C1O (stereo not given)	10.4
CSC(=O)c1sc(SC)[n+](-c2ccccc2)c1O	35.7
CC1=NN(c2nc(N)nc(COc3ccc(N)cc3)n2)C(C)(C)C1	> 100
